Experimental data from patent US5185366A, “Method for treatment and prevention of diseases caused by enveloped viruses, including herpes simplex virus types 1 and 2 diseases, using 3,4-dihydroxy-2H-benzopyran-2H-one” (Ohio State University Research Foundation, priority 1990, dated 1993).
Where two headings read alike, the source gives them in different places.

Tests used:
enveloped viruses = settings: cited from earlier work
HSV = settings: cited from earlier work; for extracellular inactivation of HSV: 0.5 mM
[1] = tested on: human immunodeficiency virus (HIV); settings: cited from earlier work
enveloped virus .phi. 6 = settings: cited from earlier work
HSV-2 [2] = experiment: Intracellular activity, inhibition of plaque forming units, HSV-2; format: cell-based, Herpes simplex virus type 2; settings: for inhibition at 0.4 µM: Human alphaherpesvirus 2, HSV-2, 0.4 μmol/L; for inhibition at 1.6 µM: Human alphaherpesvirus 2, HSV-2, 1.6 μmol/L; for inhibition at 10 µM: Human alphaherpesvirus 2, HSV-2, 10.0 μmol/L
HSV-2 [3] = experiment: Extracellular activity, inhibition of plaque forming units, HSV-2; settings: for inhibition at 0.4 µM: Human alphaherpesvirus 2, read-out: % Inhibition of PFU, EA (extracellular activity), HSV-2, 0.4 μmol/L; for inhibition at 1.6 µM: Human alphaherpesvirus 2, read-out: % Inhibition of PFU, EA (extracellular activity), HSV-2, 1.6 μmol/L; for inhibition at 2.5 µM: Human alphaherpesvirus 2, read-out: % Inhibition of PFU, EA (extracellular activity), HSV-2, 2.5 μmol/L; for inhibition at 10 µM: Human alphaherpesvirus 2, read-out: % Inhibition of PFU, EA (extracellular activity), HSV-2, 10.0 μmol/L
[4] = Inhibition of cell growth (microscopic cell count); format: cell-based, Buffalo green monkey; settings: monkey, bgm-70 cells, read-out: % Reduction of cell growth; for inhibition at 24 h, 0.4 µM / inhibition at 48 h, 0.4 µM: 0.4 μmol/L; for inhibition at 24 h, 1.6 µM / inhibition at 48 h, 1.6 µM: 1.6 μmol/L; for inhibition at 24 h, 2.5 µM / inhibition at 48 h, 2.5 µM: 2.5 μmol/L; for inhibition at 24 h, 10 µM / inhibition at 48 h, 10 µM: 10.0 μmol/L; for inhibition at 24 h, 50 µM / inhibition at 48 h, 50 µM: 50.0 μmol/L; for inhibition at 24 h, 100 µM / inhibition at 48 h, 100 µM: 100.0 μmol/L
Method: a MASHII cell harvester and placed in a scintillation counter to determin
incorporation of labelled compound and level of toxicity. BGM 70 cells ar
seeded at a concentration of […] per well in a 24well tissue cultur
plate. Cells are planted in 2 mL of growth medium with or without the tes
compound and are incubated at 37° C. for 38 hours. At 24 hours
medium is removed from onehalf of the plates and the cells are fixed and
stained with crystal violet. The remaining cultures are fixed and stained
^b BGM 70 cells are counted microscopically and comparisons are made.
Experiments are performed blindly by assigning each compound concentratio
a letter code. The code is broken after the cells are counted.
The effect of the compounds on the inhibition of cell growth is determined using BGM-70 cells grown in vitro. For this assay, BGM 70 cells are seeded at a concentration of approximately 70 cells per well in 24-well tissue culture plates. Cells are planted in 2 ml of growth medium with or without the test compound and are incubated at 37° C. for 48 hours. At 24 hours, cells from one half of the plates are fixed and stained with crystal violet. The remaining cultures are fixed and stained at 48 hours. Cells are counted microscopically and comparisons are made between non-treated (control) and treated cells.

[5] = tested on: Buffalo green monkey kidney (BGM 70) cells; experiment: [3H]-thymidine uptake cytotoxicity; format: cell-based; settings: for inhibition at 0.4 µM / inhibition at 1.6 µM / inhibition at 2.5 µM / inhibition at 10 µM: Chlorocebus sabaeus, read-out: % Inhibition of [3H]-Thymidine Incorporated; for inhibition at 0.4 µM: 0.4 μmol/L; for inhibition at 1.6 µM: 1.6 μmol/L; for inhibition at 2.5 µM: 2.5 μmol/L; for inhibition at 10 µM: 10.0 μmol/L
[6] = tested on: herpes simplex virus type 1 (HSV-1); settings: cited from earlier work
viruses having no lipids = settings: cited from earlier work
HBV surface antigen = settings: Pottage et al., cited from earlier work
[7] = tested on: cellular protein synthesis; settings: Pottage et al., cited from earlier work
[8] = read-out: % Inhibition of PFU, IA (intracellular activity)
[9] = at concentrations of 10 μM or less

CCCCC[C@@H](O)[C@H]1C(=O)O[C@H](C)[C@@H](O)/C=C/C=C/C=C/C=C/C=C(\C)[C@@H](O)C[C@H](O)C[C@H](O)C[C@H](O)C[C@H](O)C[C@H](O)C[C@@H]1O [filipin]
inactivation of enveloped viruses (enveloped viruses): inactivates enveloped viruses

CCCCCCCCCCO [decanol]
extracellular inactivation of HSV (HSV): 90-100%

nonoxynol-9
inactivation of HIV [1]: inactivate HIV

C/C(=C\CO)CCC[C@H](C)CCC[C@H](C)CCCC(C)C [phytol]
concentration inhibiting HSV (HSV): 0.01 to 0.1 mM
concentration inhibiting enveloped virus .phi. 6 (enveloped virus .phi. 6): 10^-6 to 10^-4 mM

CC1(c2ccc(Cl)cc2)OC(=O)C(O)=C1O (racemic) [Compound 1]
inhibition at 0.4 µM (HSV-2 [2]; [8]): 0%
inhibition at 1.6 µM (HSV-2 [2]; [8]): 8 ± 2.4%
inhibition at 0.4 µM (HSV-2 [3]): 0%
inhibition at 1.6 µM (HSV-2 [3]): 1.5 ± 0.1%
inhibition at 24 h, 0.4 µM [4]: 12 ± 4%
inhibition at 24 h, 1.6 µM [4]: 54 ± 8.6%
inhibition at 24 h, 2.5 µM [4]: 60 ± 9.1%
inhibition at 48 h, 0.4 µM [4]: 16 ± 3.6%
inhibition at 48 h, 1.6 µM [4]: 67 ± 12.1%
inhibition at 48 h, 2.5 µM [4]: 90 ± 4.6%
inhibition at 0.4 µM ([5]; 24 h): 0%
inhibition at 1.6 µM ([5]; 24 h): 16.7 ± 12.7%
inhibition at 2.5 µM ([5]; 24 h): 66.7 ± 5.8%
inhibition at 10 µM ([5]; 24 h): 95 ± 0.4%
inhibition at 0.4 µM ([5]; 48 h): 0%
inhibition at 1.6 µM ([5]; 48 h): 14.5 ± 15.5%
inhibition at 2.5 µM ([5]; 48 h): 74.3 ± 9.3%
inhibition at 10 µM ([5]; 48 h): 98.6 ± 0.5%
inhibition at 0.4 µM ([5]; 72 h): 0%
inhibition at 1.6 µM ([5]; 72 h): 39.9 ± 15.7%
inhibition at 2.5 µM ([5]; 72 h): 53.9 ± 16.3%
inhibition at 10 µM ([5]; 72 h): 98.2 ± 0.8%
toxicity ([3H]-thymidine uptake and/or cell growth) [5, 9]: display toxicity

CCCCCCCCCCCCO [dodecanol]
extracellular inactivation of HSV (HSV): 90-100%

CCCCCCCCCCCCCCO [tetradecanol]
extracellular inactivation of HSV (HSV): 90-100%

O=c1oc2cc3c(cc2c(O)c1O)OCO3 [Compound 8]
inhibition at 2.5 µM (HSV-2 [2]; Human alphaherpesvirus 2, HSV-2, 2.5 μmol/L, read-out: % Inhibition of PFU, IA (intracellular activity)): 1 ± 0.2%
inhibition at 10 µM (HSV-2 [2]; [8]): 6.1 ± 1%
inhibition at 2.5 µM (HSV-2 [3]): 3 ± 1%
inhibition at 10 µM (HSV-2 [3]): 16 ± 8%
inhibition at 24 h, 2.5 µM [4]: 2 ± 0.6%
inhibition at 24 h, 10 µM [4]: 6.6 ± 1%
inhibition at 24 h, 50 µM [4]: 54 ± 2%
inhibition at 24 h, 100 µM [4]: 68 ± 7.6%
inhibition at 48 h, 2.5 µM [4]: 4.2 ± 3.6%
inhibition at 48 h, 10 µM [4]: 8.1 ± 2.1%
inhibition at 48 h, 50 µM [4]: 52.2 ± 9.1%
inhibition at 48 h, 100 µM [4]: 71 ± 8.1%
toxicity ([3H]-thymidine uptake and/or cell growth) ([5]; at 10 μM): no toxicity

CC(C)(Oc1ccc(Cl)cc1)C(=O)O [clofibric acid, reference compound]
inhibition at 500 µM (HSV-2 [2]; Human alphaherpesvirus 2, 500 μM, one experiment, n=3 wells, P<0.02, read-out: inhibition (PFU), virus-infected cells): 66 ± 6%
inhibition, extracellular treatment of HSV-2 (HSV-2 [3]; 500 μM, P>0.05): no significant (P>0.05) inhibition
anti-HSV-1 activity (inhibition) ([6]; 500 μM, Mehl): 45%
inhibition of replication of HSV-1 ([6]; BGM 70 cells): inhibit replication of herpes simplex virus type 1 (HSV-1)

Cc1cc(C(C)(C)C)c(O)c(C(C)(C)C)c1 [BHT, butylated hydroxytoluene]
inactivation of viruses that contain lipids (enveloped viruses): readily inactivated
IC50 (HSV; Snipes et al., read-out: concentration causing 50% inactivation of HSV): 70 to 160 µM
inactivation of viruses having no lipids (viruses having no lipids): comparatively insensitive

benzalkonium chloride
inactivation of HIV [1]: inactivate HIV
concentration destroying the infectiousness of HIV ([1]; general fluids of seropositive individuals): 0.05%

CCOC(=O)C(C)(C)Oc1ccc(Cl)cc1 [clofibrate, clofibric acid ethyl ester]
antiherpetic activity (HSV; Steinhart et al.): antiherpetic activity

CC(=O)N1CCN(c2ccc(OCC3COC(Cn4ccnc4)(c4ccc(Cl)cc4Cl)O3)cc2)CC1 (centres unmarked) [Ketoconazole]
inhibition in HBV surface antigen production (HBV surface antigen; 10 μg/mL): 72%
HBV surface antigen production (HBV surface antigen): non-specifically inhibits HBV surface antigen production
reduction in protein synthesis ([7]; 10 μg/mL): 38%
cellular protein synthesis [7]: decrease in cellular protein synthesis

O=C1OC2(CCCCC2)C(O)=C1O [Compound 4, 4-spiro-2-hydroxytetronic acid]
inhibition at 0.4 µM (HSV-2 [3]): 2 ± 1%
inhibition at 1.6 µM (HSV-2 [3]): 1.8 ± 0.2%
inhibition at 24 h, 0.4 µM [4]: 6 ± 1.1%
inhibition at 24 h, 1.6 µM [4]: 21 ± 12%
inhibition at 24 h, 2.5 µM [4]: 37 ± 9.4%
inhibition at 24 h, 10 µM [4]: 88 ± 6.1%
inhibition at 48 h, 0.4 µM [4]: 8.4 ± 3.6%
inhibition at 48 h, 1.6 µM [4]: 22 ± 6.1%
inhibition at 48 h, 2.5 µM [4]: 59 ± 12.4%
inhibition at 48 h, 10 µM [4]: 86 ± 6.1%
toxicity ([3H]-thymidine uptake and/or cell growth) [5, 9]: display toxicity

O=c1oc2ccc(O)cc2c(O)c1O [Compound 7]
inhibition at 10 µM (HSV-2 [2]; [8]): 10 ± 3.2%
inhibition at 10 µM (HSV-2 [3]): 86 ± 0.5%
inhibition at 24 h, 0.4 µM [4]: 14.2 ± 6.2%
inhibition at 24 h, 2.5 µM [4]: 0.4%
inhibition at 24 h, 10 µM [4]: 1.6 ± 0.2%
inhibition at 24 h, 50 µM [4]: 18.4 ± 6.1%
inhibition at 24 h, 100 µM [4]: 52 ± 8%
inhibition at 48 h, 2.5 µM [4]: 1 ± 0.4%
inhibition at 48 h, 10 µM [4]: 2 ± 1%
inhibition at 48 h, 50 µM [4]: 22.1 ± 8.4%
inhibition at 48 h, 100 µM [4]: 66 ± 11.1%
inhibition at 0.4 µM ([5]; 24 h): 13.6 ± 6.1%
inhibition at 1.6 µM ([5]; 24 h): 28.6 ± 12%
inhibition at 2.5 µM ([5]; 24 h): 36.9 ± 8.6%
inhibition at 10 µM ([5]; 24 h): 44.3 ± 9.1%
inhibition at 0.4 µM ([5]; 48 h): 13.9 ± 6.1%
inhibition at 1.6 µM ([5]; 48 h): 31.7 ± 8.4%
inhibition at 2.5 µM ([5]; 48 h): 37.2 ± 5.1%
inhibition at 10 µM ([5]; 48 h): 46.6 ± 8%
inhibition at 0.4 µM ([5]; 72 h): 13.9 ± 6.1%
inhibition at 1.6 µM ([5]; 72 h): 31.6 ± 8.4%
inhibition at 2.5 µM ([5]; 72 h): 39.3 ± 13.1%
inhibition at 10 µM ([5]; 72 h): 48.4 ± 14%
toxicity ([3H]-thymidine uptake and/or cell growth) [5, 9]: display toxicity

O=c1oc2ccc(Cl)cc2c(O)c1O [Compound 6]
inhibition at 0.4 µM (HSV-2 [2]; [8]): 3 ± 1.1%
inhibition at 1.6 µM (HSV-2 [2]; [8]): 10 ± 4.6%
inhibition at 0.4 µM (HSV-2 [3]): 1.5 ± 0.8%
inhibition at 1.6 µM (HSV-2 [3]): 1.2 ± 0.6%
inhibition at 2.5 µM (HSV-2 [3]): 0.4 ± 0.1%
inhibition at 24 h, 0.4 µM [4]: 21 ± 1%
inhibition at 24 h, 1.6 µM [4]: 20 ± 6.2%
inhibition at 24 h, 2.5 µM [4]: 56 ± 12%
inhibition at 48 h, 0.4 µM [4]: 12 ± 6.5%
inhibition at 48 h, 1.6 µM [4]: 30 ± 13.1%
inhibition at 48 h, 2.5 µM [4]: 58 ± 9.4%
inhibition at 0.4 µM ([5]; 24 h): 11.1 ± 9.1%
inhibition at 1.6 µM ([5]; 24 h): 31.1 ± 5.8%
inhibition at 2.5 µM ([5]; 24 h): 17.8 ± 2%
inhibition at 10 µM ([5]; 24 h): 90 ± 1.4%
inhibition at 0.4 µM ([5]; 48 h): 16.7 ± 8.4%
inhibition at 1.6 µM ([5]; 48 h): 46.8 ± 9%
inhibition at 2.5 µM ([5]; 48 h): 20 ± 3.3%
inhibition at 10 µM ([5]; 48 h): 99.2 ± 0.8%
inhibition at 0.4 µM ([5]; 72 h): 31.8 ± 12%
inhibition at 1.6 µM ([5]; 72 h): 41.4 ± 14%
inhibition at 2.5 µM ([5]; 72 h): 17 ± 5%
inhibition at 10 µM ([5]; 72 h): 99.2 ± 0.8%
toxicity ([3H]-thymidine uptake and/or cell growth) [5, 9]: display toxicity
